# Data published in patent publication US10285962B2, “Glutarate compounds for treating ischemia-reperfusion injuries” (The Regents of the University of California, priority 2016, dated 2019).
# Columns and labels:
# [1] = test system: myocardial infarct size in IR injury; design: protection against IR injury (TTC stained cross-sections): dose or concentration left out as unconfirmed; conditions: for protection against IR injury (TTC stained cross-sections): single IV bolus at reperfusion
# [2] = test system: electron flow through the ETC (Complex I, II, IV); test: electron flow through the ETC, OCR of isolated mouse heart mitochondria; type: biochemical
# [3] = biological target: heart ATP synthase (complex V) (Mus musculus, UniProt P56480); test: respiration of mitochondria isolated from mouse heart (ATP synthase / complex V inhibition)
smiles,measurement,setting,value
CC[C@H]1/C=C/C=C/C[C@@H](C)[C@H](O)[C@@](C)(O)C(=O)[C@@H](C)[C@H](O)[C@@H](C)C(=O)[C@@H](C)[C@H](O)[C@@H](C)/C=C/C(=O)O[C@@H]2[C@H](C)[C@H](CC1)O[C@]1(CC[C@H](C)[C@H](C[C@@H](C)O)O1)[C@H]2C [oligomycin],toxicity,"[1]; 5 μM, administered at the time of reperfusion",toxic
same,myocardial infarct size,"[1]; lower doses (e.g., 10 nM) given at reperfusion",significantly reduce myocardial infarct size
O=C(O)CCC(=O)O [succinate],protection against IR injury (TTC stained cross-sections),[1],does not
CC(C)(COP(=O)(O)OP(=O)(O)OC[C@H]1O[C@@H](n2cnc3c(N)ncnc32)[C@H](O)[C@@H]1OP(=O)(O)O)[C@@H](O)C(=O)NCCC(=O)NCCSC(=O)CCC(=O)O [succinyl-CoA],protection against IR injury (TTC stained cross-sections),[1],significant protection
"O=C(O)CCC(=O)C(=O)O [α-KG, α-ketoglutarate]",electron flow through the ETC,[2]; isolated mouse heart mitochondria,does not affect
same,"Complex I, Complex II, or Complex IV respiration","[2]; sequential rotenone, succinate, antimycin A, TMPD",No difference
same,reduction of infarct size,"[1]; mouse, in vivo",about 70%
same,protection in the presence of the HIF-1 inhibitor echinomycin,"[1]; mouse, in vivo, iv",fully protective
same,complex V activity,[3]; […],inhibits
same,state 3 respiration,[3]; initiated by 2 mM ADP,decreases
